Measured values taken from patent US10792283B2, “Quinoline analogs as phosphatidylinositol 3-kinase inhibitors” (HANGZHOU ZHENGXIANG PHARMACEUTICALS CO., LTD., priority 2016, dated 2020).
pIC50: −log10 of the molar value. Read-outs that look alike come from different tables or passages of the source. Values belong to the compound of their own block, whether it stands above or below them.

Tests used:
[1] = Hepatocyte stability (parent drug disappearance in cryopreserved hepatocytes); type: in vitro ADME, human; conditions: for half-life at 1 μM: human, cryopreserved hepatocytes
Experimental: The hepatocyte assay was used to evaluate the metabolic stability of test articles (TA) following incubation in cryopreserved hepatocytes by monitoring parent drug disappearance via […]. The TA with 1% final DMSO concentration was incubated with 0.5 million hepatocytes/ml at 1 μM substrate in duplicate. The incubation was carried out at 37° C. with 5% CO2 and saturating humidity. Samples were taken at 0, 1, 2, and 3 hours to monitor the disappearance of TA and a half-life (t ½) was determined. Table 2 below summarizes the t½ values (e.g. t ½) collected from this Example.

PI3Kδ = PI3Kδ (Homo sapiens (Human), UniProt O00329); test: Enzymatic activity of PI3K isoforms, TR-FRET assay; type: biochemical; conditions: 10 μM ATP
Chain of PI3Kδ (O00329 whole entry, canonical isoform): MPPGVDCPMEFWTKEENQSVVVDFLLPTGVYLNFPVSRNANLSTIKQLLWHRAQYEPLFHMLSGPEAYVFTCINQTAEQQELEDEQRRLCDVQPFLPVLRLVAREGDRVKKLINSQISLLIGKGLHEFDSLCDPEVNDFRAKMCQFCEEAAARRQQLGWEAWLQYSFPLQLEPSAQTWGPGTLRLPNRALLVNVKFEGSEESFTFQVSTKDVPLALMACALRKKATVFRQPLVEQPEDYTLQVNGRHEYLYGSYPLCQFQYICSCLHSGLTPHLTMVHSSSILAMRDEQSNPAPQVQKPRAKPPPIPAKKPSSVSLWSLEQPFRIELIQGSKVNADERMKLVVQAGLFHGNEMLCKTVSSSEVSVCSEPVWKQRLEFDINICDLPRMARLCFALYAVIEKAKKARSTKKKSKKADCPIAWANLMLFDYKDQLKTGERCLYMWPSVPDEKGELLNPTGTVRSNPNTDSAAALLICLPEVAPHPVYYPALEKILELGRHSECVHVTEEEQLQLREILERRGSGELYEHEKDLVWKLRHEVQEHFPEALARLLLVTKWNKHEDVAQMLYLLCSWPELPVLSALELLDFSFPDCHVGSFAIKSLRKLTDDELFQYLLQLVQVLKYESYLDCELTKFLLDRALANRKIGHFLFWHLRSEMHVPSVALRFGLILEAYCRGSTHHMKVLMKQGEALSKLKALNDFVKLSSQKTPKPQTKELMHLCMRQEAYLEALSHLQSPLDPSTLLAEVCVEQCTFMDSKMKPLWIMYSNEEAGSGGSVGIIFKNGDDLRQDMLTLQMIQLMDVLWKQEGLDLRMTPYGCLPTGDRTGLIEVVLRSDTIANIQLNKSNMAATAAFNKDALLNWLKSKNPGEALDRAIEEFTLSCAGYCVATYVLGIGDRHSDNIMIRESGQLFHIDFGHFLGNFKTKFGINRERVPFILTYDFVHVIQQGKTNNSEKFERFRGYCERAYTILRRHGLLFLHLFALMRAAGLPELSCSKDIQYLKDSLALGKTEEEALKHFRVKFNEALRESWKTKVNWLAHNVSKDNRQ
Chain of PI3Kδ (P27986 whole entry partner, canonical isoform): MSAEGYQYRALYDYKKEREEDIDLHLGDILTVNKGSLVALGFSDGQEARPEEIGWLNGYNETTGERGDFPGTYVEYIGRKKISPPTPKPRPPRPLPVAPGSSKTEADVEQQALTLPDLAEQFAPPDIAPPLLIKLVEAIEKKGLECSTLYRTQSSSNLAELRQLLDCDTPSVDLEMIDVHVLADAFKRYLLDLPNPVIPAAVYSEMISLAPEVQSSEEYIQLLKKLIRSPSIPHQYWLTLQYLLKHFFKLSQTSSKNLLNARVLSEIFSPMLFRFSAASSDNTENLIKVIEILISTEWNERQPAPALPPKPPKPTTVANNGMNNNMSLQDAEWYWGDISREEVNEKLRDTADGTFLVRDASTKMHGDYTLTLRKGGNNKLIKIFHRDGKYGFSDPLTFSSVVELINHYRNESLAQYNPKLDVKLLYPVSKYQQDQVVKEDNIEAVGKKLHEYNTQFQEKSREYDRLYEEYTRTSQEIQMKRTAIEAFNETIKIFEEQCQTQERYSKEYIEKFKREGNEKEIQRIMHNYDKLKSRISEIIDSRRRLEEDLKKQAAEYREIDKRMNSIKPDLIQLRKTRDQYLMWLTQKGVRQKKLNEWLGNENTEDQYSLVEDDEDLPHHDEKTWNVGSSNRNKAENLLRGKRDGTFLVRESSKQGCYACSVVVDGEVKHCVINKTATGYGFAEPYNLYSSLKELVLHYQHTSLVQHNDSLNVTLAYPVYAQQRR
Experimental: Enzymatic activity of the class I PI3K isoforms in the presence of the compounds of Table 1 above was measured using a time-resolved fluorescence resonance energy transfer (TR-FRET) assay.
The TR-FRET assay can monitor formation of the product 3,4,5-inositol triphosphate molecule (PIP3) as it competed with fluorescently labeled PIP3 for binding to the GRP-1 pleckstrin homology domain protein. An increase in […] product results in a decrease in TR-FRET signal as the labeled fluorophore is displaced from the GRP-1 protein binding site.
Control compound, PI-103, was tested in 10-dose IC50 with 3-fold serial dilution starting at 10 μm.
Data are normalized based on negative (DMSO) control. The alpha, beta, delta, and gamma IC50 values were calculated from the fit of the dose-response curves to a four parameter equation. IC50 are reported in units of nM.
IC50 values were obtained for all PI3K isoforms (α, β, δ, and γ), and Table 2 summarizes the IC50 data collected for PI3Kδ in this Example.

[2] = cited from earlier work
[3] = cited from earlier work; remark: listed apart in the source
SU-DHL-4 = test: Cytotoxicity assay (CTG, 72 h) in SU-DHL-4; type: cell-based
Experimental: (§1) Cytotoxicity assay of compound 2 of Table 1 in selected cell lines
(§2) Day 0: cell seeding for all cell lines with the density of 10000 cells/80 μL/well.
(§3) Day 1, drug treatment: Prepare 3-fold serial dilutions of compound stock solutions with growth medium. Dispense 20 μL (5×) drμg solution in each well (duplicates for each concentration), the final DMSO concentration of each well treated with test compound and corresponding vehicle control is 0.1%. Incubate the plate for 72 h in specified incubator.
(§4) Day 4, plate reading: Thaw CTG solution and equilibrate to room temperature, add 100 μL of CTG per well, mix the contents for 2 min on the plate shaker, incubate for 10 min before recording the luminescence signal using Envision.

SU-DHL-6 = test: Cytotoxicity assay (CTG, 72 h) in SU-DHL-6; type: cell-based
Experimental: as §1, §2, §3, §4

SU-DHL-5 = test: Cytotoxicity assay (CTG, 72 h) in SU-DHL-5; type: cell-based
Experimental: as §1, §2, §3, §4

JVM-2 = test: Cytotoxicity assay (CTG, 72 h) in JVM-2; type: cell-based
Experimental: as §1, §2, §3, §4

EHEB = test: Cytotoxicity assay (CTG, 72 h) in EHEB; type: cell-based; conditions: cell viability
Experimental: as §1, §2, §3, §4

[4] = PK profile after iv and PO dosing in rats; type: in vivo, SD rats
Experimental: Compound 2 was dosed by both iv and PO in the rats.

[5] = 1 μM substrate, 0.5 million hepatocytes/ml, 37° C., read-out: hepatocyte T1/2 (converted)
[6] = human hepatocytes, Table 3 comparison, read-out: T ½
[7] = IV, data from idelalisib NDA filing
[8] = oral, data from idelalisib NDA filing
[9] = Homo sapiens, SU-DHL-4, cell viability
[10] = Homo sapiens, SU-DHL-6, cell viability
[11] = Homo sapiens, SU-DHL-5, cell viability
[12] = Homo sapiens, JVM-2, cell viability
[13] = Sprague-Dawley, rat, in vivo, 1.32 mg/kg, iv, rats
[14] = Sprague-Dawley, rat, in vivo, po, 10 mg/kg, SD rats

Structure (SMILES): CC[C@H](Nc1ncnc2[nH]cnc12)c1nc2cccc(F)c2c(=O)n1-c1ccccc1 [Idelalisib, idelalisib]
Fatal and/or serious hepatotoxicity, % of patients ([2]; combination trials): 11%
Fatal and/or serious hepatotoxicity, % of patients ([2]; monotherapy): 18%
AUCinf [3, 7]: 1151 ± 407 ng·h/mL
Cl [3, 7]: 478 ± 19 mL/min/kg
Cmax [3, 7]: 1437 ± 220 ng/mL
Tmax [3, 7]: 0.08 h
VSS [3, 7]: 2.49 L/kg
AUCinf [3, 8]: 422 ± 67 ng·h/mL
Cmax [3, 8]: 129 ± 49 ng/mL
Tmax [3, 8]: 3.00 h
t1/2 ([3]; rat, in vivo, iv): 1.89 h
IC50 (SU-DHL-4; [9]): 0.198 µM
IC50 (SU-DHL-6; [10]): 0.13 µM
IC50 (SU-DHL-5; [11]): 1.68 µM
IC50 (JVM-2; [12]): 1.43 µM
IC50 (EHEB): 0.506 µM

Structure (SMILES): C[C@H](Nc1ncnc(N)c1C#N)c1cc2ccc(F)cc2nc1-c1ccccc1S(C)(=O)=O [Compound E, reference compound]
half-life at 1 μM [1, 5]: 4.8 h

Structure (SMILES): C[C@H](Nc1nc(N)nc(N)c1C#N)c1cc2cccc(F)c2nc1-c1ccccc1S(C)(=O)=O [Compound 7, (S)-2,4-Diamino-6-{1-[8-fluoro-2-(2-methanesulfonyl-phenyl)-quinolin-3-yl]-ethylamino}-pyrimidine-5-carbonitrile]
half-life at 1 μM [1, 5]: 59 h
half-life at 1 μM [1, 6]: > 48 h
pIC50 (PI3Kδ): 8.68

Structure (SMILES): C[C@H](Nc1ncnc(N)c1C#N)c1cc2ccc(F)cc2nc1-c1ccccn1 [H, reference compound]
half-life at 1 μM [1, 5]: 0.88 h
half-life at 1 μM [1, 6]: < 1 h

Structure (SMILES): C[C@H](Nc1ncnc(N)c1C#N)c1cc2cccc(F)c2nc1-c1ccccc1S(C)(=O)=O [F, reference compound]
half-life at 1 μM [1, 5]: 5.9 h
half-life at 1 μM [1, 6]: < 6 h

Structure (SMILES): C[C@H](Nc1nc(N)nc(N)c1C#N)c1cc2cccc(Cl)c2nc1-c1ccccn1 [Compound 8, (S)-2,4-Diamino-6-[1-(8-chloro-2-pyridin-2-yl-quinolin-3-yl)-ethylamino]-pyrimidine-5-carbonitrile]
pIC50 (PI3Kδ): 9.01

Structure (SMILES): N.N.[Cl][Pt][Cl] [Cisplatin]
IC50 (SU-DHL-4; cell viability): 0.507 µM
IC50 (SU-DHL-6; cell viability): 5.61 µM
IC50 (SU-DHL-5; cell viability): 0.28 µM
IC50 (JVM-2; cell viability): 0.749 µM
IC50 (EHEB): 2.59 µM

Structure (SMILES): C[C@H](Nc1nc(N)nc(N)c1C#N)c1cc2cccc(F)c2nc1-c1ccccn1 [Compound 6, (S)-2,4-Diamino-6-[1-(8-fluoro-2-pyridin-2-yl-quinolin-3-yl)-ethylamino]-pyrimidine-5-carbonitrile]
half-life at 1 μM [1, 5]: 9 h

Now from value to compound, other results behind:

half-life at 1 μM [1, 5]: 20 h
half-life at 1 μM [1, 6]: > 12 h
pIC50 (PI3Kδ): 9.85
Structure (SMILES): C[C@H](Nc1nc(N)nc(N)c1C#N)c1cc2ccc(F)cc2nc1-c1cccc(F)c1 [Compound 5, (S)-2,4-diamino-6-{1-[7-fluoro-2-(3-fluoro-phenyl)-quinolin-3-yl]-ethylamino}-pyrimidine-5-carbonitrile]

half-life at 1 μM [1, 5]: 10 h
Structure (SMILES): C[C@H](Nc1ncnc(N)c1C#N)c1cc2ccc(F)cc2nc1-c1ccccc1 [D, reference compound]

half-life at 1 μM [1, 5]: 17 h
pIC50 (PI3Kδ): 9.62
Structure (SMILES): C[C@H](Nc1nc(N)nc(N)c1C#N)c1cc2ccc(F)cc2nc1-c1cc(F)cc(F)c1 [Compound 3, (S)-2,4-Diamino-6-{1-[2-(3,5-difluoro-phenyl)-7-fluoro-quinolin-3-yl]-ethylamino}-pyrimidine-5-carbonitrile]

half-life at 1 μM [1, 5]: 1.2 h
half-life at 1 μM [1, 6]: < 1.5 h
Structure (SMILES): C[C@H](Nc1ncnc(N)c1C#N)c1cc2ccc(F)cc2nc1-c1cccc(F)c1 [G, reference compound]

half-life at 1 μM [1, 5]: 6 h
improved stability in human hepatocytes (longer half-life), fold ([1]; versus compound E): 1.3 ×
pIC50 (PI3Kδ): 9.57
Structure (SMILES): C[C@H](Nc1nc(N)nc(N)c1C#N)c1cc2ccc(F)cc2nc1-c1ccccc1S(C)(=O)=O [Compound 4, (S)-2,4-Diamino-6-{1-[7-fluoro-2-(2-methanesulfonyl-phenyl)-quinolin-3-yl]-ethylamino}-pyrimidine-5-carbonitrile]

half-life at 1 μM [1, 5]: 27 h
improved stability in human hepatocytes (longer half-life), fold ([1]; versus compound D): 2.7 ×
pIC50 (PI3Kδ): 10.37
Structure (SMILES): C[C@H](Nc1nc(N)nc(N)c1C#N)c1cc2ccc(F)cc2nc1-c1ccccc1 [Compound 1, (S)-2,4-diamino-6-[1-(7-fluoro-2-phenyl-quinolin-3-yl)-ethylamino]-pyrimidine-5-carbonitrile]

half-life at 1 μM [1, 5]: 53 h
half-life at 1 μM [1, 6]: > 48 h
AUC(0-inf) [4, 13]: 4550 ng·h/mL
Cmax [4, 13]: 1090 ng/mL
Tmax [4, 13]: 0.08 h
clearance [4, 13]: 4.6 mL/min/kg
half-life [4, 13]: 3.55 h
Vd ([4]; Sprague-Dawley, rat, in vivo, 1.32 mg/kg, iv, rats, read-out: VSS): 1.12 L/kg
AUC(0-inf) [4, 14]: 29500 ng·h/mL
Cmax [4, 14]: 3170 ng/mL
Tmax [4, 14]: 2 h
bioavailability [4, 14]: 80%
half-life [4, 14]: 3.12 h
AUCinf/Dose ([4]; iv, rats): 3448
Cmax/Dose ([4]; iv, rats): 828
Oral exposure corrected with dose (AUCinf/dose), fold higher than that of idelalisib ([4]; oral dose 10 mg/kg, SD rats, versus idelalisib): 20 fold
AUCinf/Dose ([4]; po, 10 mg/kg, SD rats): 2949
Cl ([4]; po, 10 mg/kg, SD rats): 4.6 mL/min/kg
Cmax/Dose ([4]; po, 10 mg/kg, SD rats): 317
pIC50 (PI3Kδ): 10.07
Structure (SMILES): C[C@H](Nc1nc(N)nc(N)c1C#N)c1cc2ccc(F)cc2nc1-c1ccccn1 [Compound 2, (S)-2,4-Diamino-6-[1-(7-fluoro-2-pyridin-2-yl-quinolin-3-yl)-ethylamino]-pyrimidine-5-carbonitrile]
IC50 (SU-DHL-4; [9]): 0.088 µM
IC50 (SU-DHL-6; [10]): 0.035 µM
IC50 (SU-DHL-5; [11]): 0.493 µM
IC50 (JVM-2; [12]): 0.931 µM
IC50 (EHEB): 0.216 µM
